Laboratory results as given in patent US20090023773A1, “COMPOSITIONS AND METHODS FOR MODULATING GATED ION CHANNELS” (PainCeptor Pharma Corporation, priority 2007, published 2009).

Assays:
[1] = system: acute paw inflammation caused by intraplantar injection of λ-carrageenan; test: Carrageenan model for pain (Example 8); assay type: in vivo; conditions: rat, 30 and 100 mg/kg SC, 4 h post-carrageenan
Method: Acute inflammatory hyperalgesia is induced in rats by unilateral injection of 150 μl of a 3% solution of λ-carrageenan into the plantar surface of the left hind paw 3-5 hours prior to testing. Thermal hyperalgesia, mechanical allodynia, mechanical hyperalgesia, weight bearing asymmetry and paw inflammation were determined. Rats are pretreated with test compounds either administered intravenously (IV), by subcutaneous injection (SC) or by oral gavage (PO).
Thermal nociceptive thresholds are determined according to the method described elsewhere (Hargreaves et al., 1988). Briefly, through the glass surface, a radiant heat source (8V, 50 W projector bulb) is focused onto the plantar surface of the hind paw. The rat's paw-withdrawal latency to this stimulus is recorded to the nearest 0.1 s. Each latency score is an average of three trials, which are separated by at least 5 min. In all rats, both the injured and uninjured hind paws are similarly tested, allowing direct comparisons between inflamed and non-inflamed paws. […]
Mechanical hyperalgesia is determined by measuring the difference of withdrawal thresholds in response to increasing pressure in the inflamed vs contralateral paw using the Randall-Sellito Paw pressure meter (IITC Life Science) (Randall L O and Sellito J J., 1957). Briefly, rats are held in a contention jacket suspended by a stand and allowed to acclimate for 10 min. Then the tips of the paw pressure applicator are positioned close to the middle of the plantar and the dorsal area of the paw, avoiding the saphenous nerve innervations and an increasing pressure is applied until the rat removes it. Measures are performed in triplicate for each paw by alternating each paw with an interval of at least 1 min to avoid sensitization. […]
Carrageenan induced paw oedema is measured with a plethysmometer (IITC Life Science). Briefly, a mark is made on the ankles of the rat and the ipsi and contralateral paw are submerged 3 times into water up to the mark in order to determine the paw volume by calculation of water displacement.

[2] = molecular target: T1, hASIC2a/3 steady state (window) current (Homo sapiens, UniProt Q16515+Q9UHC3); test: ASIC2a/3 assay, automated two-electrode voltage clamp in oocytes microinjected with hASIC2a and hASIC3 (Example 2); assay type: cell-based; conditions: 50 μM, perfusion at pH 6.5; FIG. 8
T1 construct: expressed in transfected cells; host or cells: Xenopus laevis oocytes, cRNA microinjection, 1:1 mass ratio
T1 sequence (Q16515 1-512): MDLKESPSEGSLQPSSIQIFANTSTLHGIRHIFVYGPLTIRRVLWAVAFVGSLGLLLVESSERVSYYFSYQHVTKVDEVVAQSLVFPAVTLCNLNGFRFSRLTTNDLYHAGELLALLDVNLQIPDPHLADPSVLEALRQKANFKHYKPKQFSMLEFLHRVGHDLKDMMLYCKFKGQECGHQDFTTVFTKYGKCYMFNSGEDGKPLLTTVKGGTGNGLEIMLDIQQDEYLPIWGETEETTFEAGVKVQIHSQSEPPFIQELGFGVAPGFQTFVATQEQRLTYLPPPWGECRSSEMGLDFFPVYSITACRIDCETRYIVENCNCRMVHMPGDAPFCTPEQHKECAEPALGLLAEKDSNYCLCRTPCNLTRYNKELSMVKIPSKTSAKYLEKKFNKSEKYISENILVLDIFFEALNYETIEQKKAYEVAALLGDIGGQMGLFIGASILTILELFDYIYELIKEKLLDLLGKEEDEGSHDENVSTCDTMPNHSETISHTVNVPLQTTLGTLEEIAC
T1 sequence (Q9UHC3 1-531): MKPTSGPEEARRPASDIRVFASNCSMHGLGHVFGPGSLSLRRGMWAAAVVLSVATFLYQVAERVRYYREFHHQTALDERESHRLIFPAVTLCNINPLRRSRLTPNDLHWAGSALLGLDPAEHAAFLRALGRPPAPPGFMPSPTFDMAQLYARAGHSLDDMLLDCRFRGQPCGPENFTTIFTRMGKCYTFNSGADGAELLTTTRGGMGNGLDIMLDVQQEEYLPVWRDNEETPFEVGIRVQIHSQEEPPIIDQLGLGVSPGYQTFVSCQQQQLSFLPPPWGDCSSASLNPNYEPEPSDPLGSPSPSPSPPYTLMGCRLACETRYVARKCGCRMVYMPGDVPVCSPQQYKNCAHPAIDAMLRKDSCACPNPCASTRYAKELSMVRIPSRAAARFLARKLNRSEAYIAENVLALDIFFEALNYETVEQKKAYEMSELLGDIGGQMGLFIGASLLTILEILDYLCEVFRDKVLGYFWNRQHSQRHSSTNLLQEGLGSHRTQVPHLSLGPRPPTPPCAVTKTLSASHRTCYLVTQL
Method: The ASIC2a/3 assay involves methods and procedures commonly in use and have been extensively described in the literature.
Briefly, a mature female frog is placed on its back after anesthesia, 20 min in 0.1% (w/v) Tricaine (Sigma), and incision is made on the lower abdomen through the skin, muscle and into the peritoneum. Lobes of ovaries are pulled out with forceps, cut and placed in a solution of Ca^2+-free Barth's with 1% (w/v) collagenase Type I (Sigma) added, for 90 minutes. The dissociated eggs are then washed with complete Barth's, supplementd with […] Gentamycin.
Plasmids containing cDNA for ASIC2a+ASIC3 are linearized and used for cRNA synthesis. The synthesis is done according to the protocol insert of the synthesis kit (e.g. Message Machine, Ambion). The final resuspension of the cRNA is made to provide a concentration of 1 μg/μL. The cDNA's for hASIC2a and hASIC3 are mixed with a 1:1 mass ratio and injected at […] per oocyte. Micro-injected oocytes start expressing hASIC2a3 specific current after 24 h.
The oocytes micro-injected with hASIC2a and hASIC3 cRNA's are placed in the recording chambers of the automated rig and then impaled with the voltage and current micro-electrodes. […] The voltage and current for each oocyte is recorded in one pass during both applications for later analysis. […]

`Cc1cc(OC2CCN(Cc3ccccc3)CC2)c2cc(O)ccc2n1` [Compound 13, 4-(1-benzylpiperidin-4-yloxy)-2-methylquinolin-6-ol] was tested, and the mechanical hyperalgesia ([1]; 1 min prior to carrageenan) was “dose-dependently reversed”, the “size of the inflammation” value ([1]; 1 min prior to carrageenan) was “reduced” and the thermal hyperalgesia ([1]; 1 min prior to carrageenan) was “dose-dependently reversed”.

With `Cc1ccc(-c2nc(Nc3ccc(C(=O)O)cc3)c3cc(Cl)ccc3n2)cc1` [Compound 124] the “inhibition of the ASIC 2a/3 current” value [2] was “specific inhibition”, the mechanical hyperalgesia ([1]; 30 min prior to carrageenan) was “dose-dependently reversed” and the “size of the inflammation” value ([1]; 30 min prior to carrageenan) was “reduced”. The thermal hyperalgesia ([1]; 30 min prior to carrageenan) was “dose-dependently reversed”.
